Counter-ions that a name gives are not always drawn.
Key:
[1] = molecular target: T1, LRRK2 phospho-Ser935 (Homo sapiens, UniProt Q5S007); assay: Cellular LRRK2 phosphoserine 935 dephosphorylation spotblot assay in SH-SY5Y cells stably expressing 3xFlag-LRRK2; format: cell-based; conditions: @ 5 μM for 2 h; SH-SY5Y stably expressing LRRK2; pS935/total LRRK2
T1 construct: expressed in transfected cells

[2] = molecular target: T2, GST-tagged truncated LRRK2 containing residues 970 to 2527 (Homo sapiens, UniProt Q5S007); assay: In vitro LRRKtide peptide-substrate kinase assay, single dose testing (10 μM); format: biochemical; conditions: LRRKtide assay @ 10 μM inhibitor; GST-LRRK2 970-2527; 10 μM ATP; mean, N = 3; solvent control = 100%
T2 construct: GST-tagged truncated LRRK2 containing residues 970 to 2527 (Life Technologies); purchased Life Technologies
T2 sequence (Q5S007 970-2527): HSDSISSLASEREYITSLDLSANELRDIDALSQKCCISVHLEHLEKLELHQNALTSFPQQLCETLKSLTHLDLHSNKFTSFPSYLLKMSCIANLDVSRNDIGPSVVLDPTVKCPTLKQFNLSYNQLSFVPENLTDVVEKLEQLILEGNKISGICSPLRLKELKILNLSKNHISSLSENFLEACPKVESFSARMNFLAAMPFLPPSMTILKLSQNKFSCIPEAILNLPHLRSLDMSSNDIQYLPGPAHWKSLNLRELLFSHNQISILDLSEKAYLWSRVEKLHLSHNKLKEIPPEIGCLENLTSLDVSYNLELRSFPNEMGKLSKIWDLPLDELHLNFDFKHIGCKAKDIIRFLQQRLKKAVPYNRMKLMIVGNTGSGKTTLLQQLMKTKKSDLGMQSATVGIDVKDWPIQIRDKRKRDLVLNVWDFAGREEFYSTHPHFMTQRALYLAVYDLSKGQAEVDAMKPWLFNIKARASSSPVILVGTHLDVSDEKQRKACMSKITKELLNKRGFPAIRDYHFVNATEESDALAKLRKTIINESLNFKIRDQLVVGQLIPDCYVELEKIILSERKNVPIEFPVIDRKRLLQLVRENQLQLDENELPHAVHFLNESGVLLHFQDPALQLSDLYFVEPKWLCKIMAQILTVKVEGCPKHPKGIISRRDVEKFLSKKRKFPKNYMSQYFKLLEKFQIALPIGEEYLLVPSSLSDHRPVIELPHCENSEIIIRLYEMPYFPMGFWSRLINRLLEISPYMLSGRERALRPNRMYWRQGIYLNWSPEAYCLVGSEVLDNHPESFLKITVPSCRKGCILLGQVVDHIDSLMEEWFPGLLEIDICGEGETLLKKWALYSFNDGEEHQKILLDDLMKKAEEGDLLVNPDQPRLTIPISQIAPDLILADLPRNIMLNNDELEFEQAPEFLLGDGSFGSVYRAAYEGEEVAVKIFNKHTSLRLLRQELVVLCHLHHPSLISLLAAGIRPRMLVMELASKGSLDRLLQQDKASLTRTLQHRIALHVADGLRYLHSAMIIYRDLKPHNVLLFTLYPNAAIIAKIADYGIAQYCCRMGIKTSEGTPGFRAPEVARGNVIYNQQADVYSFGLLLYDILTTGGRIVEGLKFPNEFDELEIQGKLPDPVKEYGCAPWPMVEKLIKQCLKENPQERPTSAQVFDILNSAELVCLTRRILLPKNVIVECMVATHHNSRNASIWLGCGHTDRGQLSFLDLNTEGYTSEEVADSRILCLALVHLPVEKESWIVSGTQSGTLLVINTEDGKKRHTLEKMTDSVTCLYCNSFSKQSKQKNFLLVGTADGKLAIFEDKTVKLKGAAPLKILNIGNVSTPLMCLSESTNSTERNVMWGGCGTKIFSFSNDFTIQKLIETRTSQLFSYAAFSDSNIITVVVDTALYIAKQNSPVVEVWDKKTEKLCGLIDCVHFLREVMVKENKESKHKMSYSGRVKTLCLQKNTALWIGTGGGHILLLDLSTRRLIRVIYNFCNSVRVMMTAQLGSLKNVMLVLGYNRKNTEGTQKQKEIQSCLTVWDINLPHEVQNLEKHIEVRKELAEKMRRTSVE

T1 sequence (Q5S007 whole entry): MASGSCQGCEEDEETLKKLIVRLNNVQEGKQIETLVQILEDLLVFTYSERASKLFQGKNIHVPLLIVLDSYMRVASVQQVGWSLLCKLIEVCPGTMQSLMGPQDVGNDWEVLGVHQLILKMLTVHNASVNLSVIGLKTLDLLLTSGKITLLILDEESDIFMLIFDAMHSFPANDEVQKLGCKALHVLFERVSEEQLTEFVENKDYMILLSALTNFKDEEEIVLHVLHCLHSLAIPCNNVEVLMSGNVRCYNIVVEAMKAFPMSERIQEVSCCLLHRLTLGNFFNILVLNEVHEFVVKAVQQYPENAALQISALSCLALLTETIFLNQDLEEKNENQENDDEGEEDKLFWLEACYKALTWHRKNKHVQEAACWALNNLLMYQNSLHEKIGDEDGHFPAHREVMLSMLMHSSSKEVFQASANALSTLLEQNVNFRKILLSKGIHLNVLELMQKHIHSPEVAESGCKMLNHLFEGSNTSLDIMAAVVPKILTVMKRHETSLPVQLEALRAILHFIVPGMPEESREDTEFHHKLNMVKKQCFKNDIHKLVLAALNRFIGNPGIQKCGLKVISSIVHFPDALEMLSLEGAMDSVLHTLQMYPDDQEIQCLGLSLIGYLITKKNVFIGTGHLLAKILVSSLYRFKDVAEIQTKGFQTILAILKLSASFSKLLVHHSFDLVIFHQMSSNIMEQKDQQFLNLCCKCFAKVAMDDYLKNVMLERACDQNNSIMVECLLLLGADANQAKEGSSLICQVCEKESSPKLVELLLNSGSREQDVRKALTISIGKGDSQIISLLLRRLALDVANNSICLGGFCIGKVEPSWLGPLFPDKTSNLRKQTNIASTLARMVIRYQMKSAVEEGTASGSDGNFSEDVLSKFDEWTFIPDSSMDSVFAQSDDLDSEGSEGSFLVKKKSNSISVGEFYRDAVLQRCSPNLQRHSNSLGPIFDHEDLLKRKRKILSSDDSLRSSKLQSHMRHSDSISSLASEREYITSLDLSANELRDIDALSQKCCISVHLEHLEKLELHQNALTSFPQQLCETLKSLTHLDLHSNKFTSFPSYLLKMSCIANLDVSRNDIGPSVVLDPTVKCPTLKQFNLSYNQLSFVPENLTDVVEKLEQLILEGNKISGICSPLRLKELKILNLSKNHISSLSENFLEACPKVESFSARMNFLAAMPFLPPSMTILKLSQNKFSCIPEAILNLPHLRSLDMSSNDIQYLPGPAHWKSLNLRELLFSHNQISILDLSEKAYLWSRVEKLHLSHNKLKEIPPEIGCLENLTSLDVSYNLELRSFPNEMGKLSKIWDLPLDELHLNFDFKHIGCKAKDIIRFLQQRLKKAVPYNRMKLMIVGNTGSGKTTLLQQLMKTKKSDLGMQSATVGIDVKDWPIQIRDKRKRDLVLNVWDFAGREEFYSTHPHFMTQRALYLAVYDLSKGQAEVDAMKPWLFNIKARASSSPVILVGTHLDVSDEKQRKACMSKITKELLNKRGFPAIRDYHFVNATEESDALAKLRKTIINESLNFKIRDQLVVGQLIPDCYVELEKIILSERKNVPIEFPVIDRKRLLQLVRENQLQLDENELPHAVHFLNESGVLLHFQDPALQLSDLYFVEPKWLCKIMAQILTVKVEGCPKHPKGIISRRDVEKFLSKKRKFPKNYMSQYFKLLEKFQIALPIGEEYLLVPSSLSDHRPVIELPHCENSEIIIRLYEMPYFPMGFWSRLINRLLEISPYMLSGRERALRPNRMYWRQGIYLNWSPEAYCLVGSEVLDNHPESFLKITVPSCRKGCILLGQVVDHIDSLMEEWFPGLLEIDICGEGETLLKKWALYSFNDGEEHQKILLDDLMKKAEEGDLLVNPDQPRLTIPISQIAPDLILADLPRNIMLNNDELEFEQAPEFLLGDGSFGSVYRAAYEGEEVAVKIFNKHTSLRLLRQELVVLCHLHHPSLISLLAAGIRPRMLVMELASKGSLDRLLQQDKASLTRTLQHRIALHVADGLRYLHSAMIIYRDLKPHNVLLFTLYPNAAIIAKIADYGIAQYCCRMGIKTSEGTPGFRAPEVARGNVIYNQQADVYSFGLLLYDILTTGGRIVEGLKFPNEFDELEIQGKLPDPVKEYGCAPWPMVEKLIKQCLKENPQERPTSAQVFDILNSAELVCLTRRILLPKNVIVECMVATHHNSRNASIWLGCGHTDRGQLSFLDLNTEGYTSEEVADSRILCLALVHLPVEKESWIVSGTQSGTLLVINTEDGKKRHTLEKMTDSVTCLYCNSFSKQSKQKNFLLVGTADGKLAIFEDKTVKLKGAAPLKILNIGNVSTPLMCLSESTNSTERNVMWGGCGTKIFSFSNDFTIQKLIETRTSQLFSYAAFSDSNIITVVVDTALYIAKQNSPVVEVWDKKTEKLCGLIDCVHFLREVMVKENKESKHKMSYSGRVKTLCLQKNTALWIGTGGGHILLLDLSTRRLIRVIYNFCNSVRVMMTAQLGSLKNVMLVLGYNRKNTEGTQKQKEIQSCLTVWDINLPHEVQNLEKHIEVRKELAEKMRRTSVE

Structure (SMILES) | Phosphorylation level relative to solvent (%) (cellular pS935 assay) [1] | % LRRKtide phosphorylation relative to solvent [2]
Nc1[nH]nc2nnc(-c3c(-c4ccccc4)nn4ccccc34)cc12 [ERK inhibitor II, FR180204, FR180204] | 65.88% | 14.06%
O=c1[nH][nH]c2nnc(-c3c(-c4ccccc4)nn4ccccc34)cc12 [ERK inhibitor II, negative control] | 77.12% | 97.07%
N/C(=N\[N+](=O)[O-])N/N=C\c1ccc(-c2cccc([N+](=O)[O-])c2)o1 [ERK inhibitor III] | 90.93% | 55.32%
O=C1c2ccccc2-[n+]2ccc3c([nH]c4ccccc43)c21 [Fascaplysin, synthetic, Fascaplysin] | 45.44% | 17.51%
c1ccc(-c2cnc(Nc3ccc(OCCN4CCCC4)cc3)s2)cc1 [Flt-3 inhibitor III] | 54.21% | 12.56%
O=C(c1cc2cc(O)ccc2[nH]1)c1cc2cc(O)ccc2[nH]1 [Flt-3 inhibitor II] | 53.00% | 2.16%
COc1ccc(C(=O)Nc2sc3c(c2C(N)=O)CCCC3)cc1OC [Flt-3 inhibitor] | 63.54% | 38.91%
Cc1cc(Nc2nc(-c3ccccc3)nc3ccccc23)n[nH]1 [GSK-3 inhibitor XIII] | 73.51% | 3.34%
Ic1cccc(CSc2nnc(-c3ccncc3)o2)c1 [GSK-3b inhibitor II] | 84.51% | 100.90%
Cn1sc(=O)n(Cc2ccccc2)c1=O [GSK-3b inhibitor I] | 95.90% | 106.35%
COc1ccc(CNC(=O)Nc2ncc([N+](=O)[O-])s2)cc1 [GSK-3b inhibitor VIII] | 115.21% | 128.15%
Nc1cccc(-c2cc3c(Oc4cccc(O)c4)ncnc3[nH]2)c1 [GSK-3b inhibitor XII, TWS119, TWS119] | 122.47% | 13.54%
O=C1NC(=O)C(c2cn(CCCO)c3ncccc23)=C1c1cnccn1 [GSK-3b inhibitor XI] | 87.77% | 32.34%
Cn1c2ccccc2c2c3c(c4c5ccccc5n(CCC#N)c4c21)CNC3=O [Gö 6976] | 56.41% | 5.79%
COc1ccc2c(c1)c(C1=C(c3c[nH]c4ccccc34)C(=O)NC1=O)cn2CCCN(C)C [Gö 6983] | 70.11% | 3.04%
Cl.Cl.O=S(=O)(NCCNC/C=C/c1ccc(Br)cc1)c1cccc2cnccc12 [H-89, Dihydrochloride] | 155.11% | 45.29%
O=S(=O)(c1cccc2cnccc12)N1CCCNCC1 [HA 1077, Dihydrochloride Fasudil, Fasudil] | 89.37% | 79.40%
